Assay [1] has as its system extracellular DA concentrations in the nucleus accumbens (NAcc). Nature of the assay: In vivo microdialysis of PCP-induced extracellular DA in the nucleus accumbens of freely moving rats. Further details: species or system rat (Sprague-Dawley). From the text:
(§1) We explored the effects of increased endogenous GABA activity on PCP-induced extracellular DA concentrations in the prefrontal cortex (PFC) and nucleus accumbens (NAcc) of freely moving rats.
(§2) All animals were used under an IACUC-approved protocol and with strict adherence to the NIH guidelines. Adult male Sprague-Dawley rats (200-300 g, Taconic Farms), housed in the animals care facility under 12:12 light/dark conditions, were placed into 6 groups (n=3-6), anesthetized and siliconized guide cannulae were stereotactically implanted into the right NAcc (2.0 mm anterior and 1.0 mm lateral to bregms, and 7.0 mm ventral to the cortical surface) and prefrontal cortex (PFC) at least 4 days prior to study. Microdialysis probes (2.0 mm, Bioanalytical Systems, BAS, West Lafayette, Ind.) were positioned within the guide cannulae and artificial cerebrospinal fluid (ACSF, 155.0 mM […]) was administered through the probe using a CMA/100 microinfusion pump (BAS) at a flow rate of […].
Animals were placed in bowls, and probes were inserted and flushed with ACSF overnight. On the day of the study, a minimum of three samples were injected to determine baseline stability. Samples were collected for 20 min. and injected on-line (CMA/160, BAS). The average dopamine concentration of these three stable samples was defined as control (100%), and all subsequent treatment values were transformed to a percentage of that control. Upon establishing a stable baseline, the PCP was administered by intraperitoneal (i.p.) injection. The high performance liquid chromatography (HPLC) system consists of a BAS reverse-phase column (3.0μ C-18), a BAS LC-4C electrochemical transducer with a dual/glassy carbon electrode set at 650 mV, a computer that analyzes data on-line using a commercial software package (Chromograph Bioanalytical Systems), and a dual pen chart recorder. The mobile phase (flow rate 1.0 ml/min) consisted of 7.0% methanol, 50 mM sodium phosphate monobasic, 1.0 mM sodium octyl sulfate, and 0.1 mm […], pH 4.0. DA eluted at 7.5 min.
Gamma-vinyl GABA (GVG), an irreversible inhibitor of GABA-transaminase, was administered by intraperitoneal injection 2.5 hours prior to PCP (7 mg/kg). In all studies, animals were placed in the microdialysis bowls the night before the experiment and artificial cerebrospinal fluid (ACSF) was perfused through the microdialysis probes at a flow rate of 2.0 μl/min. At the end of each study, animals were sacrificed and their brains were removed and sectioned for probe placement verification.
Levels of extracellular DA were sampled from the NAcc continuously using a stereoaxically implanted probe. […]

Assay [2] has as its system extracellular DA concentrations in the prefrontal cortex (PFC). Nature of the assay: In vivo microdialysis of PCP-induced extracellular DA in the prefrontal cortex of freely moving rats. Further details: species or system rat (Sprague-Dawley). The note with it: p<0.01.
Description: as §1, §2
Animals were placed in bowls, and probes were inserted and flushed with ACSF overnight. On the day of the study, a minimum of three samples were injected to determine baseline stability. Samples were collected for 20 min. and injected on-line (CMA/160, BAS). […]

The subject of assay [3] is synaptic dopamine (11C-raclopride binding). Nature of the assay: PET study with 11C-raclopride, GVG and PCP in primates. It counts as in vivo, Papio anubis baboons.

Take `C=CC(N)CCC(=O)O` (racemic) [GVG, 4-amino-5-hexanoic acid]: the “attenuation of the DA response to PCP in the NAcc” value in assay [1] (GVG 150 mg/kg i.p. 2.5 hours prior to PCP (7 mg/kg)) was “no significant inhibition”; in assay [1] (GVG 300 mg/kg i.p. 2.5 hours prior to PCP (7 mg/kg), p<0.01), 62%; in assay [1] (GVG 500 mg/kg i.p. 2.5 hours prior to PCP (7 mg/kg), p<0.001) it was 67%. The “attenuation of PFC DA activity (response to PCP)” value in assay [2] (GVG pretreatment (300 mg/kg group) i.p. 2.5 hours prior to PCP (7 mg/kg)) was determined as 67%. For the same molecule, the “effect on PCP-induced increases in neostriatal synaptic DA assessed by PET” value in assay [3] (primate (baboon) brain) is “significantly attenuated”. Moreover, the “effect on PCP-induced diminution of 11C-raclopride binding (increase in synaptic dopamine)” value in assay [3] (prior intravenous 300 mg/kg GVG, PCP 1 mg/kg, four baboons, all cases) is on record as “prevented the diminution of ^11C-ralcopride binding”.
Turning to `c1ccc(C2(N3CCCCC3)CCCCC2)cc1` [PCP, Phencyclidine], in assay [1] (PCP alone, 7 mg/kg i.p., baseline = 100%, p<0.01), the “increase of DA concentrations above baseline in the NAcc” value is reported as 117%. For the same molecule, the “increase of DA concentrations above baseline in the PFC” value in assay [2] (PCP alone, 7 mg/kg i.p., baseline = 100%) turned out to be 407%.

Values taken from US6395783B1, “Treatment of PCP addiction and PCP addiction-related behavior” (Brookhaven Science Associates, LLC, priority 2000, dated 2002).
